± gives the standard deviation of the averaged measurements.
What was measured:
Conditions in all cases: 72 h
Caco-2 [1] = experiment: cell viability relative to DMSO; higher = less toxic
Calu-3 [2] = experiment: as above
HepG2 [3] = experiment: as above
U2OS [4] = experiment: as above
Vero E6 [5] = experiment: as above
Caco-2 [6] = experiment: relative viability EC50 (midpoint between 100% and the lowest measured viability); higher = less toxic
Calu-3 [7] = experiment: as above
HepG2 [8] = experiment: as above
U2OS [9] = experiment: as above
Vero E6 [10] = experiment: as above
Caco-2 [11] = experiment: drug sensitivity score (DSS) for viability; higher = more toxic; extreme values may be limits of the assay
Calu-3 [12] = experiment: as above
HepG2 [13] = experiment: as above
U2OS [14] = experiment: as above
Vero E6 [15] = experiment: as above

Row | SMILES | cell viability (Caco-2 [1]; 1 nM) [%] | cell viability (Caco-2 [1]; 10 nM) [%] | cell viability (Caco-2 [1]; 100 nM) [%] | cell viability (Caco-2 [1]; 1000 nM) [%] | cell viability (Caco-2 [1]; 10000 nM) [%] | cell viability (Calu-3 [2]; 1 nM) [%] | cell viability (Calu-3 [2]; 10 nM) [%] | cell viability (Calu-3 [2]; 100 nM) [%] | cell viability (Calu-3 [2]; 1000 nM) [%] | cell viability (Calu-3 [2]; 10000 nM) [%] | cell viability (HepG2 [3]; 1 nM) [%] | cell viability (HepG2 [3]; 10 nM) [%] | cell viability (HepG2 [3]; 100 nM) [%] | cell viability (HepG2 [3]; 1000 nM) [%] | cell viability (HepG2 [3]; 10000 nM) [%] | cell viability (U2OS [4]; 1 nM) [%] | cell viability (U2OS [4]; 10 nM) [%] | cell viability (U2OS [4]; 100 nM) [%] | cell viability (U2OS [4]; 1000 nM) [%] | cell viability (U2OS [4]; 10000 nM) [%] | cell viability (Vero E6 [5]; 1 nM) [%] | cell viability (Vero E6 [5]; 10 nM) [%] | cell viability (Vero E6 [5]; 100 nM) [%] | cell viability (Vero E6 [5]; 1000 nM) [%] | cell viability (Vero E6 [5]; 10000 nM) [%] | relative viability EC50 (Caco-2 [6]) [µM] | relative viability EC50 (Calu-3 [7]) [µM] | relative viability EC50 (HepG2 [8]) [µM] | relative viability EC50 (U2OS [9]) [µM] | relative viability EC50 (Vero E6 [10]) [µM] | drug sensitivity score (Caco-2 [11]) | drug sensitivity score (Calu-3 [12]) | drug sensitivity score (HepG2 [13]) | drug sensitivity score (U2OS [14]) | drug sensitivity score (Vero E6 [15])
1 | CN(C)Cc1ccc(S(=O)(=O)n2ccc(/C=C/C(=O)NO)c2)cc1 [resminostat] | 99.6 | 101 | 103 | 98.4 | 12.4 | 102 | 96.3 | 92.9 | 86.2 | 27.9 | 110 | 110 | 94 | 69.2 | 7.9 | 95.2 | 105 | 97.9 | 88.1 | 5.5 | 106 | 103 | 101 | 82.1 | 2 | 3.03 | 1.77 | 1.38 | 2.14 | 1.81 | 5.1 | 6.2 | 9.1 | 7.2 | 8.4
2 | Cc1cc(OCC(=O)O)cc(C)c1Cc1ccc(O)c(C(C)C)c1 [sobetirome] | 102 | 95.7 | 92.1 | 94.7 | 90.5 | 102 | 96.6 | 105 | 98.7 | 101 | 100 | 103 | 96 | 96.2 | 85 | 97.5 | 99.9 | 99.5 | 99.5 | 100 | 102 | 99.3 | 87.9 | 96.4 | 85.3 | > 10 | > 10 | > 10 | > 10 | > 10 | 0 | 0 | 0.4 | 0 | 0.3
3 | Nc1ccc(S(=O)(=O)Nc2nccs2)cc1 [sulfathiazole] | 95.8 | 96.1 | 95.1 | 93.6 | 99 | 86.1 | 94.9 | 92.2 | 98 | 89.3 | 102 | 95 | 94.2 | 105 | 116 | 94.2 | 98.5 | 94.3 | 93.6 | 102 | 96.9 | 100 | 97.5 | 104 | 102 | > 10 | > 10 | > 10 | > 10 | > 10 | 0 | 0 | 0 | 0 | 0
4 | CCOCC(O)COc1ccc(NC(=O)CC[S+](C)C)cc1 (stereo not given) [suplatast] | 95.9 | 99 | 99.1 | 98.5 | 104 | 94.8 | 93.1 | 93.4 | 102 | 101 | 93.8 | 94.3 | 85 | 91.2 | 94.1 | 99.1 | 96.4 | 100 | 100 | 101 | 87.8 | 98.2 | 93.3 | 94.8 | 104 | > 10 | > 10 | > 10 | > 10 | > 10 | 0 | 0 | 0 | 0 | 0
5 | CN1C(=O)C[C@@H](C(=O)N[C@@H](Cc2c[nH]cn2)C(=O)N2CCC[C@H]2C(N)=O)NC1=O [taltirelin] | 101 | 100 | 97.2 | 97.6 | 95.9 | 96.3 | 94.7 | 101 | 97.8 | 84.9 | 106 | 99.6 | 99 | 104 | 108 | 105 | 96.2 | 99.5 | 98.1 | 101 | 99 | 96.8 | 104 | 97.4 | 98.3 | > 10 | > 10 | > 10 | > 10 | > 10 | 0 | 0.5 | 0 | 0 | 0
6 | CCCCCCCCCCCCCCSCC(=O)O [tetradecylthioacetic-acid] | 93.1 | 104 | 104 | 83.9 | 108 | 95.2 | 102 | 99.1 | 108 | 109 | 90.8 | 102 | 86.4 | 102 | 119 | 98.1 | 101 | 93.5 | 97.2 | 100 | 103 | 95.6 | 98.2 | 99.2 | 94.6 | > 10 | > 10 | > 10 | > 10 | > 10 | 0 | 0 | 0 | 0 | 0
7 | c1ccc(C2CN3CCSC3=N2)cc1 (stereo not given) [tetramisole] | 95 ± 7.1 | 102 ± 11 | 92.65 ± 0.78 | 91.9 ± 8.6 | 96.5 ± 1.7 | 98.7 ± 5 | 97.85 ± 0.92 | 99.7 ± 1.3 | 110 ± 12 | 94.7 ± 1.6 | 101.9 ± 0.14 | 95.6 ± 0.57 | 96.2 ± 3.5 | 93.1 ± 5.7 | 100 ± 4.2 | 99.8 ± 1.8 | 98.2 ± 2.3 | 98.3 ± 1.8 | 97.9 ± 1.1 | 100 ± 6.9 | 93.8 ± 2.8 | 98.5 ± 1.6 | 96.2 ± 3.3 | 96.8 ± 0.57 | 101 ± 1.1 | > 10 | > 10 | > 10 | > 10 | > 10 | 0.85 ± 1.2 | 0 | 0 | 0 | 0

From the supplement of paper PMC13380429
